We go through 36 molecules from PubChem BioAssay (NCI).

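Five compound concentrations were applied to cells in 96-well plates for 48 hours; endpoints were derived by simple linear interpolation of the resulting dose-response curve. GI50 = concentration required for 50% inhibition of growth. The concentration for full growth arrest is given as TGI.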 Where a SMILES comes first, the peptide text is derived from it. The star is where a group is joined. Boc = CC(C)(C)OC(=O)*

Test systems include RXF-631 renal; KM20L2 colon; M19-MEL melanoma; XF 498 CNS; DMS 273 small cell lung; HOP-18 NSCLC; MDA-N; P388/ADR leukemia; P388 leukemia; SN12K1 renal.
What all share (assay): NCI tumour cell line growth inhibition, 48 h

For `CC(=O)C(CN(CC(C)C)CC(C)C)C(c1ccccc1)c1c(O)c2ccccc2oc1=O` (stereo unspecified), the TGI in the assay on RXF-631 renal, in the assay on KM20L2 colon and in the assay on M19-MEL melanoma was more than 100 µM throughout.

With `CCN(CC)CC1c2ccccc2C(CNc2ccccc2)N1C` (stereo unspecified), the TGI in the assay with RXF-631 renal, with XF 498 CNS, with DMS 273 small cell lung, in the assay with KM20L2 colon and with M19-MEL melanoma was more than 100 µM each time.

As for `Fc1ccc(C2SCc3nc4ccccc4n32)c(F)c1` (stereo unspecified), the TGI with RXF-631 renal, with HOP-18 NSCLC, in the assay on DMS 273 small cell lung, in the assay on KM20L2 colon and in the assay with M19-MEL melanoma was more than 100 µM each time.

As to `COC(=O)C1CC2CC(=NNC(N)=O)CC2C1` (stereo unspecified), the TGI in the assay with XF 498 CNS, in the assay with DMS 273 small cell lung and with M19-MEL melanoma was more than 100 µM throughout.

Regarding `CCCP1(=O)C=C(C)C(=C(Cl)Cl)C(C)=C1` (stereo unspecified), the TGI with HOP-18 NSCLC was more than 100 µM; in the assay on KM20L2 colon it was 47.1 µM; in the assay with M19-MEL melanoma, more than 100 µM.

Take `Cc1c(/C=N/N=C/c2[nH]c(C(=O)OC(C)(C)C)c(C)c2C)[nH]c(C(=O)OC(C)(C)C)c1C`: the TGI in the assay on HOP-18 NSCLC, in the assay on DMS 273 small cell lung, in the assay on KM20L2 colon and in the assay with M19-MEL melanoma was more than 100 µM in each case.

For the molecule `COc1ccc(-c2cc(Cc3cccs3)c(=O)[nH]n2)cc1`, the TGI in the assay with DMS 273 small cell lung, in the assay on KM20L2 colon and in the assay with M19-MEL melanoma was more than 100 µM in each case.

Regarding `CC(=O)Nc1ccc(SC#N)c2c(NC(C)=O)cccc12`, the TGI in the assay on RXF-631 renal, in the assay with HOP-18 NSCLC, in the assay with DMS 273 small cell lung, with KM20L2 colon and in the assay with M19-MEL melanoma was more than 100 µM throughout.

As to `CCOC(=O)C1C(=S)NC(=O)C1C#N` (stereo unspecified), the TGI with RXF-631 renal, in the assay on HOP-18 NSCLC, in the assay with DMS 273 small cell lung, in the assay with KM20L2 colon and with M19-MEL melanoma was more than 100 µM throughout.

`NNC(=O)CS(=O)(=O)Nc1ncccn1`: the TGI with MDA-N is more than 100 µM.

With `Cc1ccc2c(C3Cc4ccccc4N3C(=O)/C=C\C(=O)O)c(C)[nH]c2c1` (stereo unspecified), the TGI in the assay with DMS 273 small cell lung, in the assay on KM20L2 colon and in the assay on M19-MEL melanoma was more than 100 µM throughout.

With `COC1C=COC2(C)Oc3c(C)c(O)c4c(c3C2=O)/C(=N/C2CCC(O)OC2C)C=C(NC(=O)/C(C)=C\C(=O)C2CC2C(O)C(C)C(O)C(C)C(OC(C)=O)C1C)C4=O` (stereo unspecified), in the assay on MDA-N, the TGI turned out to be 3.83 µM.

Consider `O=C(O)c1ccc(C(=O)c2ccccc2)c(C(=O)O)c1`, for which, in the assay on MDA-N, the TGI was more than 100 µM.

`Cc1cccc(C)c1NC(=O)/C(=N/NC(N)=S)C(C)C(=O)c1ccc(Cl)cc1` (stereo unspecified): the TGI in the assay on RXF-631 renal, in the assay on HOP-18 NSCLC, in the assay on XF 498 CNS, in the assay with DMS 273 small cell lung, with KM20L2 colon and in the assay with M19-MEL melanoma was more than 100 µM throughout.

Turning to `CC#CCC1CCC(OCC)=CC1=O` (stereo unspecified), the TGI in the assay with RXF-631 renal, with HOP-18 NSCLC, with XF 498 CNS, in the assay on DMS 273 small cell lung, in the assay on KM20L2 colon and with M19-MEL melanoma was more than 100 µM throughout.

Turning to `COc1ccc(C=O)c([N+](=O)[O-])c1`, the TGI in the assay with RXF-631 renal is more than 100 µM; with HOP-18 NSCLC, more than 100 µM; with XF 498 CNS it was more than 100 µM; in the assay with DMS 273 small cell lung, 95.1 µM; with KM20L2 colon, 45.2 µM; in the assay on M19-MEL melanoma, more than 100 µM.

In the case of `Cc1[nH]c2ccccc2c1C(=O)CC1(O)C(=O)Nc2c(Cl)cc(Cl)cc21` (stereo unspecified), the TGI in the assay on RXF-631 renal was more than 100 µM; in the assay with HOP-18 NSCLC it was 85.6 µM; in the assay on XF 498 CNS, 32.8 µM; in the assay on DMS 273 small cell lung, more than 100 µM; with M19-MEL melanoma, 24.6 µM.

As for `CC(=O)NC(CCCNC(=O)N(CCCl)N=O)C(=O)NCc1ccccc1` (stereo unspecified), the TGI with HOP-18 NSCLC, with XF 498 CNS, with DMS 273 small cell lung, in the assay with KM20L2 colon and in the assay on M19-MEL melanoma was more than 100 µM throughout.

Turning to `CCC(=O)C12OC3OC(C)(C)OC3C1OC(C)(C)O2` (stereo unspecified), the TGI in the assay on RXF-631 renal, in the assay on XF 498 CNS, in the assay on DMS 273 small cell lung and in the assay with M19-MEL melanoma was more than 100 µM throughout.

Consider `NC(=O)c1csc(C2OC(CO)C(O)C2O)n1` (stereo unspecified), for which the TGI in the assay on P388/ADR leukemia was 84.1 µM; with MDA-N it was more than 6490 µM; with P388 leukemia, 159 µM; in the assay with HOP-18 NSCLC it was more than 3980 µM; with XF 498 CNS, 732 µM; with DMS 273 small cell lung, 9960 µM. Besides, the TGI is more than 9220 µM with SN12K1 renal, more than 9200 µM in the assay with KM20L2 colon and more than 5520 µM in the assay with M19-MEL melanoma. Further, the GI50 with MDA-N was 59.5 µM.

As to `COC(=O)C1(C)CCc2c(OC)ccc(OC)c2C1=O` (stereo unspecified), the TGI in the assay on RXF-631 renal, with XF 498 CNS, in the assay with DMS 273 small cell lung and in the assay on M19-MEL melanoma was more than 100 µM in each case.

With `Cc1ccc(/C=C/C(=O)C(C)(C)CN2CCCCC2)cc1`, the TGI in the assay with RXF-631 renal is 32.1 µM; with XF 498 CNS, 25.3 µM; in the assay on DMS 273 small cell lung, 11.7 µM; in the assay with KM20L2 colon, 10.7 µM; in the assay with M19-MEL melanoma it was 31.1 µM.

Take `O=C(O)CN1CCN(CC(=O)O)CC(=O)[O][Hg][O]C(=O)C1`: in the assay with MDA-N, the GI50 was 16.7 µM and the TGI was 31.7 µM.

On to `Nc1nc(OCc2ccccc2)c2[nH]cnc2n1`, for which the TGI in the assay on RXF-631 renal came out at 309 µM; with HOP-18 NSCLC, 335 µM; with DMS 273 small cell lung it was 400 µM; in the assay with KM20L2 colon it was 400 µM; with M19-MEL melanoma, 400 µM.

On to `O=C1NC(=O)C2C(=O)NC(=O)C1C2c1c(Cl)cccc1Cl` (stereo unspecified), for which the TGI in the assay on RXF-631 renal was more than 100 µM; in the assay with HOP-18 NSCLC, more than 100 µM; in the assay with XF 498 CNS, more than 100 µM; in the assay with DMS 273 small cell lung, more than 57.5 µM; in the assay with KM20L2 colon, more than 83.6 µM.

`O=C1OC(=O)C(=C\c2ccc3c(c2)OCO3)/C1=C/c1ccc2c(c1)OCO2`: the TGI in the assay on MDA-N is more than 100 µM.

`COc1ccc2c(c1)C(=O)C1CC(=O)CCC21` (stereo unspecified): the TGI in the assay on RXF-631 renal, with HOP-18 NSCLC, in the assay with DMS 273 small cell lung, in the assay with KM20L2 colon and with M19-MEL melanoma was more than 100 µM in each case.

With `O=C(/C=C/c1ccccc1)CCN1CCOCC1`, the TGI with P388/ADR leukemia was 7.76 µM; in the assay on MDA-N it was 30.1 µM; with P388 leukemia it was more than 27.2 µM; with HOP-18 NSCLC it was 32.2 µM; with XF 498 CNS it was 29.1 µM; in the assay on DMS 273 small cell lung, 35.9 µM. Besides, the TGI came out at 31 µM in the assay on SN12K1 renal, 31.2 µM with KM20L2 colon and 28.3 µM with M19-MEL melanoma.

`O=C1OC(Cc2ccccc2)(N2CCCC2=O)C1c1ccccc1` (stereo unspecified): the TGI with XF 498 CNS is 88.5 µM; in the assay with KM20L2 colon it was more than 100 µM; in the assay with M19-MEL melanoma, more than 100 µM.

For `CC(C)(C)OC(=O)NC(Cc1ccc(O)cc1)C(=O)N1CCCC1C(=O)O` (stereo not drawn) (Boc-Tyr-Pro-OH; configuration not given here), the TGI in the assay on RXF-631 renal, in the assay on HOP-18 NSCLC, in the assay on XF 498 CNS, in the assay on DMS 273 small cell lung, in the assay on KM20L2 colon and in the assay on M19-MEL melanoma was more than 100 µM in each case.

In the case of `N#CC(=C1C=CC(=NO)C=C1)c1ccc(Cl)cc1`, the TGI in the assay on HOP-18 NSCLC is more than 100 µM; in the assay on DMS 273 small cell lung, more than 100 µM; in the assay on KM20L2 colon it was more than 100 µM; with M19-MEL melanoma it was 46.9 µM.

Take `Cc1ccc(-c2nnc(-c3nn(-c4ccccc4)c4nc5ccccc5nc34)o2)cc1`: the TGI with HOP-18 NSCLC was 65.2 µM; in the assay on XF 498 CNS, 25.4 µM; with DMS 273 small cell lung, 65.1 µM; in the assay with KM20L2 colon, more than 100 µM; in the assay with M19-MEL melanoma, more than 100 µM.

As for `COc1cc2c(c(OC)c1OC)-c1ccc(SC)c(=O)cc1C(NC(=O)c1ccccc1)CC2` (stereo unspecified), the TGI with HOP-18 NSCLC was more than 100 µM; in the assay on DMS 273 small cell lung, more than 40.6 µM; in the assay with KM20L2 colon it was less than 0.01 µM; in the assay with M19-MEL melanoma, more than 100 µM.

Regarding `CC/C=C\C/C=C\C/C=C\CCCCCCCC(=O)OCC(O)CO` (stereo unspecified), the TGI with HOP-18 NSCLC, in the assay with XF 498 CNS, in the assay on DMS 273 small cell lung and with KM20L2 colon was more than 100 µM in each case.

The molecule `COc1cc2c(cc1C1COc3cc4occc4cc3C1=O)OCO2` (stereo unspecified) registered a TGI with MDA-N of more than 100 µM.

Turning to `O=C(NC1CCCCC1)NS(=O)(=O)c1ccc2c(c1)CCC2`, the TGI with RXF-631 renal, in the assay on HOP-18 NSCLC, in the assay with XF 498 CNS and in the assay on M19-MEL melanoma was more than 100 µM throughout.
